What all share (assay type): cell-based, human
Data set [1] has as its system K562 cells. Nature of the data set: MTT cytotoxicity assay of (R)-NALPCE. The note with it: 10 to 50 μg/ml, 48 hrs incubation. As to the method:
In order to examine whether the compound (R)-NALPCE is toxic to cells, MTT (3-[4,5-dimethylthiazol-2-yl]-2,5-diphenyltetrazolium bromide) assay was conducted in K562 cells which are the leukemia cells derived from human bone marrow. These cells were aliquoted at a density of 4×10^4 cells per well in 96-well plates and treated with various concentrations of (R)-NALPCE, followed by incubation for 48 hrs. Thereafter, an MTT solution was added in an amount of 20 μl to each well. Incubation at 37° C. for 4 hrs, treatment with a 20% sodium dodecyl sulfate (SDS) solution (in an equivolume mixture of N,N-dimethylformamide and distilled water), and incubation at 37° C. for 16 hrs were sequentially conducted in that order before the absorbance at 570 nm was read using an ELISA reader (Bio-Tek Instrument, Winiiski, Vt.). The assay was conducted in triplicate.
In general terms: Tetrazolium assays rely on reduction of a dye to a coloured formazan, in cell work by metabolically active cells.

The subject of data set [2] is K562 cells. The data set can be described thus: Production of thrombocytes, K562 cells on OP9 cells, optical microscopy. Conditions: 40 μg/ml. As to the method: An experiment was conducted in a manner similar to that of Example 7. OP9 cells were aliquoted at a density of 1×10^5 cells per well in 6-well plates and incubated for 24 hrs. After OP9 cells were uniformly attached onto the bottom of the plates, K562 cells were layered at a density of 1×10^5 cells per well over the OP cells in the 6-well plates. Treatment with 40 μg/ml of (R)-NALPCE was conducted before incubation in a day-dependent manner for 5 days. They were observed under an optical microscope with 200× magnification.

Data set [3] deals with K562 cells. Nature of the data set: Differentiation of K562 cells layered on OP9 cells, CD41/CD61 by FACS. As to the method:
OP9 cells were aliquoted at a density of 1×10^5 cells per well in 6-well plates and incubated for 24 hrs. After OP9 cells were uniformly attached onto the bottom of the plates, K562 cells were layered at a density of 1×10^5 cells per well over the OP cells in the 6-well plates. Treatment with 40 μg/ml of (R)-NALPCE was conducted before incubation in a day-dependent manner for 4 days. Following centrifugation (1,000 rpm, 5 min), the cell pellets thus obtained were rinsed three times with 0.01% bovine serum albumin (BSA) in PBS. Incubation with 10 μl of anti-CD41-fluorescein-5-isothiocyanate (FITC) (Dako Chemicals, Carpenteria, Calif.) and 20 μl of anti-CD61-phycoerythrin (PE) (BD Pharmingen) in 200 μl of 0.01% bovine serum albumin (BSA)-PBS was conducted at 4° C. for 50 min so as to achieve homogeneous fluorescent staining. After centrifugation (1,000 rpm, 10 min), the fluorescent-stained cell pellets thus obtained were washed three times with 0.01% bovine serum albumin (BSA) in PBS. Fluorescence was analyzed on a fluorescence-activated cell sorter (FACS) (Aria) using a Cellquest program.
On the technique in general: Flow cytometry measures light scatter and fluorescence of single cells or particles in a stream.

Data set [4] deals with K562 cells. Nature of the data set: Binding of FITC-fibrinogen to glycoprotein IIb/IIIa complexes of differentiated K562 cells (FACS). Conditions: K562 cells on OP9 cells, 40 μg/ml, 5 days, activated with 100 nM PMA. From the text:
Bone marrow progenitor cells, such as K562 cells, have glycoprotein IIb/IIIa complexes expressed thereon at a low level, but the number of complexes increases as the cells increase in size according to differentiation into megakaryocytes. By taking advantage of the fact that fibrinogens, which play a key role in blood clotting, bind to activated glycoprotein IIb/IIIa (GP IIb/IIIa) complex, the differentiation of K562 cells into megakaryocytes by (R)-NALPCE was investigated.
A process similar to that of Experimental Example 8 was conducted. OP9 cells were aliquoted at a density of 1×10^5 cells in 6-well plates and incubated for 24 hrs. After the OP9 cells were uniformly attached onto the bottom of the plates, K562 cells were layered at a density of 1×10^5 cells over the OP9 cells in 6-well plates. The cells were treated with 40 μg/ml of (R)-NALPCE before incubation in a day-dependent manner for 5 days. The (R)-NALPCE-treated K562 cells were transferred to 60 mm-dishes everyday and treated with 100 nM of PMA for 30 min to activate glycoprotein IIb/IIIa complexes. The cells thus differentiated were collected and suspended in 50 μl of PBS. […] Following the addition of […] of PBS, the amount of fibrinogen bound to the surface of the activated K562 cells was quantitatively determined as fluorescence was analyzed on a fluorescence-activated cell sorter (FACS) (Aria) using a Cellquest program.

Data set [5] concerns K562 cells. The data set can be described thus: Megakaryocyte differentiation, CD41/CD61 expression over time by FACS, K562 cells. The note with it: 40 μg/ml, 4 days. How it is done: K562 cells were aliquoted at a density of 2×10^5 cells per well in 6-well plates and treated with 40 μg/ml of (R)-NALPCE, followed by incubation for 4 days. After centrifugation (1,000 rpm, 5 min), the cell pellets thus obtained were washed three times with 0.01% bovine serum albumin (BSA) in PBS. Incubation with 10 μl of anti-CD41-fluorescein-5-isothiocyanate (FITC) (Dako Chemicals, Carpenteria, Calif.) or 20 μl of anti-CD61-phycoerythrin (PE) (BD Pharmingen) in 200 μl of 0.01% bovine serum albumin (BSA)-PBS was conducted at 4° C. for 50 min with spinning to realize homogeneous fluorescent staining. Following centrifugation (1,000 rpm, 10 min), the cell pellets thus obtained were rinsed three times with 0.01% bovine serum albumin (BSA) in PBS. Fluorescence was analyzed on a fluorescence-activated cell sorter (FACS) (Aria) using a Cellquest program.

SMILES strings stand for the structures. “Also recorded” adds a separate entry of the source.

As for `CCCCCCCCCCCCCCCCCC(=O)NC(COP(=O)([O-])OCC[N+](C)(C)C)C(=O)OC` [(R)-NALPCE, N-steroyl-O-phosphocholine-D-serine methyl ester], the “cytotoxicity on K562 cells (MTT)” value in the data set on K562 cells [1] is “does not exert cytotoxicity”. For the same compound, the “cell size (optical microscope)” value with K562 cells [2] (5 days) is given as “increased in size in a time-dependent manner”. Besides, the “appearance of anucleate cells” value in the data set on K562 cells [2] (from Day 4 after the treatment) is “anucleate cells, such as thrombocytes, were observed”. In the data set on K562 cells [3] (K562 cells on OP9 cells, 40 μg/ml, 4 days), the “increase in the count of CD41-positive cells, with OP9 cells versus alone” value was determined as 15%. Also, the “differentiation inductivity compared with PMA” value in the data set with K562 cells [3] (in combination with OP9 cells) is given as “comparable with the differentiation inductivity of PMA; also recorded: as good as that of PMA”. In addition, the “fluorescence of fibrinogens bound to glycoprotein IIb/IIIa complexes” value with K562 cells [4] was “increase in a day-dependent manner”. Besides, in the data set with K562 cells [5], the “CD41 and CD61 expression rate” value is “increase in expression rate in a time-dependent manner”.
